How the values were obtained:
Settings in all cases: 72 h
[1] = test system: Caco-2; test: cell viability relative to DMSO; higher = less toxic
[2] = test system: Calu-3; test: as above
[3] = test system: HepG2; test: as above
[4] = test system: Vero E6; test: as above
[5] = test system: HepG2; test: relative viability EC50 (midpoint between 100% and the lowest measured viability); higher = less toxic
[6] = test system: Caco-2; test: drug sensitivity score (DSS) for viability; higher = more toxic; extreme values may be limits of the assay
[7] = test system: Calu-3; test: as above
[8] = test system: HepG2; test: as above
[9] = test system: Vero E6; test: as above
[10] = test system: U2OS; test: cell viability relative to DMSO; higher = less toxic
[11] = test system: Caco-2; test: relative viability EC50 (midpoint between 100% and the lowest measured viability); higher = less toxic
[12] = test system: Calu-3; test: as above
[13] = test system: U2OS; test: as above
[14] = test system: U2OS; test: drug sensitivity score (DSS) for viability; higher = more toxic; extreme values may be limits of the assay

SMILES | cell viability ([1]; 1 nM) | cell viability ([1]; 10 nM) | cell viability ([1]; 100 nM) | cell viability ([1]; 1000 nM) | cell viability ([1]; 10000 nM) | cell viability ([2]; 1 nM) | cell viability ([2]; 10 nM) | cell viability ([2]; 100 nM) | cell viability ([2]; 1000 nM) | cell viability ([2]; 10000 nM) | cell viability ([3]; 1 nM) | cell viability ([3]; 10 nM) | cell viability ([3]; 100 nM) | cell viability ([3]; 1000 nM) | cell viability ([3]; 10000 nM) | cell viability ([4]; 1 nM) | cell viability ([4]; 10 nM) | cell viability ([4]; 100 nM) | cell viability ([4]; 1000 nM) | cell viability ([4]; 10000 nM) | relative viability EC50 [5] | drug sensitivity score [6] | drug sensitivity score [7] | drug sensitivity score [8] | drug sensitivity score [9] | cell viability ([10]; 1 nM) | cell viability ([10]; 10 nM) | cell viability ([10]; 100 nM) | cell viability ([10]; 1000 nM) | cell viability ([10]; 10000 nM) | relative viability EC50 [11] | relative viability EC50 [12] | relative viability EC50 [13] | drug sensitivity score [14]
Cc1c(C(=O)Nc2ccc(N3CCC(N4CCOCC4)CC3)c(C#N)c2)cnn1-c1ccc(Cl)cc1 [Y-320] | 104% | 93.8% | 103% | 87.5% | 74.9% | 103% | 103% | 90.1% | 89.6% | 69.9% | 106% | 109% | 105% | 77.4% | 23% | 104% | 104% | 106% | 104% | 74.6% | 1.42 µM | 2.4 | 2.2 | 7.6 | 0.8 |  |  |  |  |  |  |  |  | 
CCOc1nc2c(N)ncnc2n1CC [ANR-94] | 102% | 98.3% | 92.1% | 90.9% | 95.1% | 105% | 95.1% | 96.5% | 95.9% | 102% | 102% | 98.3% | 97.3% | 96.9% | 93.2% |  |  |  |  |  | > 10 µM | 0 | 0 | 0 |  | 104% | 96.2% | 101% | 101% | 105% | > 10 µM | > 10 µM | > 10 µM | 0
Cc1ccc(NC(=O)c2cccc(C(C)(C)C#N)c2)cc1Nc1ccc2ncn(C)c(=O)c2c1 [AZ-628] | 95.8% | 102% | 98.2% | 81.9% | 63.8% |  |  |  |  |  | 97.5% | 102% | 69.9% | 22% | 16.6% | 101% | 102% | 102% | 84.2% | 52.4% | 0.148 µM | 3.7 |  | 18.1 | 4.8 | 98.7% | 98.6% | 93.2% | 89.7% | 43.3% |  |  | 1.81 µM | 4.8
CN[C@@H]1[C@H](O)[C@H](NC)[C@H]2O[C@@]3(O)C(=O)C[C@@H](C)O[C@H]3O[C@@H]2[C@H]1O [spectinomycin] | 100% | 102% | 99.4% | 109% | 91.9% | 92.2% | 100% | 105% | 103% | 88.7% | 88.4% | 105% | 98.7% | 106% | 96.7% | 56% | 108% | 55.1% | 108% | 59.1% | > 10 µM | 0 | 0 | 0 | 1.2 | 101% | 107% | 100% | 102% | 98.5% | > 10 µM | > 10 µM | > 10 µM | 0
CCOC(=O)[C@@H](N)CCC(=O)N[C@@H](CSCc1ccccc1)C(=O)N[C@@H](C(=O)OCC)c1ccccc1 [ezatiostat] | 98.4% | 93.4% | 92% | 91% | 86.2% | 97.2% | 103% | 106% | 103% | 91.2% | 101% | 98.8% | 99.4% | 97.1% | 107% |  |  |  |  |  | > 10 µM | 0.4 | 0 | 0 |  | 96.9% | 106% | 96.1% | 100% | 95.3% | > 10 µM | > 10 µM | > 10 µM | 0
O=C(N/N=C/c1ccc([N+](=O)[O-])o1)c1cc([N+](=O)[O-])cc([N+](=O)[O-])c1O [nifursol] | 96.9% | 102% | 97.1% | 94.4% | 90.2% | 89.1% | 102% | 103% | 94.9% | 101% | 109% | 100% | 93% | 93.7% | 85.4% |  |  |  |  |  | > 10 µM | 0 | 0 | 0.3 |  | 96.9% | 98.3% | 104% | 96.8% | 101% | > 10 µM | > 10 µM | > 10 µM | 0
C#Cc1cncc([C@@H]2CCCN2C)c1 [altinicline] | 101% | 92.9% | 102% | 98.7% | 97.7% | 98.3% | 99% | 93.9% | 102% | 110% | 98.5% | 96.8% | 106% | 105% | 93.5% |  |  |  |  |  | > 10 µM | 0 | 0 | 0 |  | 102% | 91.9% | 102% | 97.4% | 98.9% | > 10 µM | > 10 µM | > 10 µM | 0
CN(C)CCOC1=Cc2ccccc2Sc2ccc(Cl)cc21 [zotepine] | 92.4% | 84.1% | 91.9% | 90.7% | 75.7% | 101% | 85.3% | 93.3% | 104% | 80.8% | 104% | 95% | 98.7% | 91.8% | 45.7% | 99.4% | 93.6% | 98.6% | 94.1% | 70.4% | 1.98 µM | 0 | 0.4 | 4.3 | 2.2 | 104% | 97.2% | 97.7% | 91.5% | 92.4% | > 10 µM | > 10 µM | > 10 µM | 0
